From patent US20260193250A1, “TOLL-LIKE RECEPTOR 7 AGONISTS AS IMMUNE-STIMULATORS TO ELICIT THE INNATE ANTITUMOR IMMUNITY” (Merck Patent GmbH, priority 2022, published 2026)

Columns and labels:
hTLR7 = biological target: T1, hTLR7 (Homo sapiens, UniProt Q9NYK1); assay: TLR7 reporter assay in HEK-Blue cells (SEAP, Quanti-Blue); type: cell-based; details: 24 hours incubation, SEAP absorbance at 620 nm
T1 construct: host or cells: HEK-Blue hTLR7 (HEK293-derived SEAP reporter cells)
T1 sequence (Q9NYK1 27-1049): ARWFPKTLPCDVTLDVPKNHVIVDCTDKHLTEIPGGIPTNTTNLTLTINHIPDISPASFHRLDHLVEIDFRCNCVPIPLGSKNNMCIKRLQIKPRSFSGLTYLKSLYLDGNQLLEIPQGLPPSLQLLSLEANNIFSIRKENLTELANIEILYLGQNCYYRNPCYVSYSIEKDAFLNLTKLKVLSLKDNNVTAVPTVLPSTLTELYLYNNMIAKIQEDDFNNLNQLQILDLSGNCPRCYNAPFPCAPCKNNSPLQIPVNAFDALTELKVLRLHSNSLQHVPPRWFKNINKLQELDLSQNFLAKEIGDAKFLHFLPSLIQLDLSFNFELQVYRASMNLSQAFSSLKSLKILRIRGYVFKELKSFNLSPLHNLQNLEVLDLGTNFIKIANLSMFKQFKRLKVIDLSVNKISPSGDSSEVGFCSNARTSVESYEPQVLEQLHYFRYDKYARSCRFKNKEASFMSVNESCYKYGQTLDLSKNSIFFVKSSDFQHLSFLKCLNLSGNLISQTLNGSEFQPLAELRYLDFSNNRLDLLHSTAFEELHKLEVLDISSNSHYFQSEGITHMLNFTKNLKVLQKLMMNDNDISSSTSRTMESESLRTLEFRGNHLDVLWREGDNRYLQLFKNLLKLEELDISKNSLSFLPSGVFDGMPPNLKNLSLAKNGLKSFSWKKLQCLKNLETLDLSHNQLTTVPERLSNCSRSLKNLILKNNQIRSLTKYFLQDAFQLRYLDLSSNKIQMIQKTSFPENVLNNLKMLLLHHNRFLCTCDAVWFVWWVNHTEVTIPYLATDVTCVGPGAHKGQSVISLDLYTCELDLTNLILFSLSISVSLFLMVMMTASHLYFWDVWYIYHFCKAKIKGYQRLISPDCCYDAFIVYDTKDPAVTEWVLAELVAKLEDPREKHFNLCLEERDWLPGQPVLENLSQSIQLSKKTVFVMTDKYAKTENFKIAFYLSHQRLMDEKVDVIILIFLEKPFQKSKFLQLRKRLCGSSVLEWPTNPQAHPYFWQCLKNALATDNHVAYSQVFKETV
Description: (§1) HEK-Blue™ TLR7 and TLR8 cell lines were obtained from InvivoGen (San Diego, CA, USA). HEK-Blue cells were cultured in DMEM medium hi glucose (Gibco-10569010) supplemented with 10% HI-FBS (Aus origin) (Gibco-10100-147), 1% penicillin/streptomycin (Gibco-15140-122-100 ml) as per manufacturer's recommendation. In addition, specific antibiotic mixtures were added to the culture. 100 μg/ml Zeocin (11006-33-0), 10 μg/ml Blasticidin (ant-bl-05), 50 μg/ml Normocin (ANT-NR-1-500 MG) for HEK-Blue™ hTLR7 and 100 μg/ml Zeocin, 30 μg/ml Blasticidin, 50 μg/ml Normocin for HEK-Blue™ hTLR8 cells (all from InvivoGen).
(§2) All the compounds were prepared in 100% DMSO (Sigma-D2650). The compounds were serially diluted in 100% DMSO (3 fold) up to 10 point dose response curve starting with 30 μM; final concentration of DMSO in the plate was 0.3%. Resiquimod and TL8-506 (InvivoGen-tlrl-t18506) were used as controls. 0.3% DMSO and 10 μM Resiquimod were used as min and max respectively, and % activation was calculated using following formula:
(§3) % Activation: {100−(max absorbance−absorbance)/(max absorbance−min absorbance)}×100.
(§4) For stimulation with TLR7/8 agonists, cells were resuspended in complete media and 40 μl of cell suspension (10,000 cells/well) was seeded on day 1 in 384 well assay plate (Thermo Scientific™ Nunc-164688) having pre-dispensed compounds with Echo Liquid handler. The plate was spun at 100 g for 1 min to settle down the cells and incubated at 37° C. with 5% CO2 for 24 hours. For measuring production of SEAP after 24 hrs of incubation, 10 μl of Quanti-Blue™ solution (InvivoGen rep-qbs2) prepared according to manufacturer's instructions was added in dark to the assay plate and incubated at 37° C. with 5% CO2 for 30 min. Post incubation, the absorbance was measured at 620 nm in Tecan spark (Spark control Magellan). EC50 were determined using Graph Pad Prism Statistical software (Version 7.05), with individual data points represent the absorbance values of duplicates.

hTLR8 = biological target: T2, hTLR8 (Homo sapiens, UniProt Q9NR97); assay: TLR8 reporter assay in HEK-Blue cells (SEAP, Quanti-Blue); type: cell-based; details: 24 hours incubation, SEAP absorbance at 620 nm
T2 construct: host or cells: HEK-Blue hTLR8 (HEK293-derived SEAP reporter cells)
T2 sequence (Q9NR97 27-1041): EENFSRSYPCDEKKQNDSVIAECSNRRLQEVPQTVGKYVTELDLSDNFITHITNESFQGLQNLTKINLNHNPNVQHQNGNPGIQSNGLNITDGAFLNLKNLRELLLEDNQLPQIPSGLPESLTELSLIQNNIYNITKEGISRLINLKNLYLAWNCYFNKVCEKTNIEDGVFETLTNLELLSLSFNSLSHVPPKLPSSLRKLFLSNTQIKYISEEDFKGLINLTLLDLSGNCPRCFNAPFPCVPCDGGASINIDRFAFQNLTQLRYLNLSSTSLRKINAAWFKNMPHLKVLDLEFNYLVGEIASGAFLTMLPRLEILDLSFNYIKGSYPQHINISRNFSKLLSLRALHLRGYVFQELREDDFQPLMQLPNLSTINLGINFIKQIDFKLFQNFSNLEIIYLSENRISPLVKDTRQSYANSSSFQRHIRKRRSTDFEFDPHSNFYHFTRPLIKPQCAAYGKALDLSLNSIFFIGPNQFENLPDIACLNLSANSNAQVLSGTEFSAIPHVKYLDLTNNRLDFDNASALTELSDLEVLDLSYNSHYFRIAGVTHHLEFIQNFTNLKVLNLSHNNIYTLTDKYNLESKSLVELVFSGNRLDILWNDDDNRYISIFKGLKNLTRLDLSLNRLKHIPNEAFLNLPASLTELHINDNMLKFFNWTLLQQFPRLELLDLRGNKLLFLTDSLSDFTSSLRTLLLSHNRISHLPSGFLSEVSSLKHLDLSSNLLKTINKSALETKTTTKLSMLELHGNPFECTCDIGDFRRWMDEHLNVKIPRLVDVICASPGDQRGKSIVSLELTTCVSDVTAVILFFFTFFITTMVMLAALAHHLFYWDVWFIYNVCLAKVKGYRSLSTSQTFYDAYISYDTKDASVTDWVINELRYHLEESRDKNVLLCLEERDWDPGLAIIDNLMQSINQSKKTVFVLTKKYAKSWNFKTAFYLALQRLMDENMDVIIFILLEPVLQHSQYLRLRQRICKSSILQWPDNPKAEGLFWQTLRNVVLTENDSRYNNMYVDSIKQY
Description: as §1, §2, §3, §4

EC50 (hTLR7) [nM]	EC50 (hTLR8) [nM]	SMILES
100 to 1000	100 to 1000	CCOCc1nc2c(N)nc3ccccc3c2n1CC(C)(C)OC(=O)CN1CCN(C)CC1 [Example 17]
100 to 1000	> 10000	CCOCc1nc2c(N)nc3ccccc3c2n1CC(C)(C)OCCNC(=O)C(C)(C)O [Example 21]
100 to 1000	1000 to 10000	CCOCc1nc2c(N)nc3ccccc3c2n1CC(C)(C)OCCCCN1CCN(CCSC)CC1 [Example 26]
1000 to 10000	> 10000	CCOCc1nc2c(N)nc3ccccc3c2n1CC(C)(C)OCCNC(=O)CS(=O)(=O)O [Example 25]
10 to 100	1000 to 10000	CCOCc1nc2c(N)nc3ccccc3c2n1CC(C)(C)OCCCCN1CCN(CCO)CC1 [Example 12]
< 10	1000 to 10000	CCOCc1nc2c(N)nc3ccccc3c2n1CC(C)(C)OCCN1CCN(C)CC1 [Example 1]
100 to 1000	1000 to 10000	CCOCc1nc2c(N)nc3ccccc3c2n1CC(C)(C)OCCNC(=O)CN1CCN(C)CC1 [Example 16]
10 to 100	1000 to 10000	CCOCc1nc2c(N)nc3ccccc3c2n1CC(C)(C)OCCCC(=O)N1CCN(C)CC1 [Example 15]
< 10	100 to 1000	CCOCc1nc2c(N)nc3ccccc3c2n1CC(C)(C)OCCCCCCN1CCN(C)CC1 [Example 5]
> 10000	> 10000	CCOCc1nc2c(N)nc3ccccc3c2n1CC(C)(C)OCCNC(=O)CO [Example 20]
100 to 1000	100 to 1000	CCOCc1nc2c(N)nc3ccccc3c2n1CC(C)(C)OCCNC(=O)CS(C)(=O)=O [Example 24]
100 to 1000	> 10000	CCOCc1nc2c(N)nc3ccccc3c2n1CC(C)(C)OCCNC(=O)CC(=O)OC [Example 22]
100 to 1000	> 10000	CCOCc1nc2c(N)nc3ccccc3c2n1CC(C)(C)OCCNC(=O)CSC [Example 23]
10 to 100	1000 to 10000	CCOCc1nc2c(N)nc3ccccc3c2n1CC(C)(C)OCCCCO [Example 6]
